Assay results reported in ChEMBL document CHEMBL1139944, “Synthesis and evaluation of new difluoromethyl azoles as antileishmanial agents” (Eur J Med Chem, 2007).

Test system: Leishmania amazonensis
Assay: Antileishmanial activity against Leishmania amazonensis promastigote by MTT method
Assay type: functional, organism-based

Compound | IC50 [nM]
FC(F)c1cn(-c2cccc(Cl)c2)nn1 | 2600
Cc1ncc(C(F)F)n1-c1ccc(Cl)cc1 | 1700
O=Cc1cn(-c2cccc(Cl)c2)nn1 | 2800
